In ChEMBL document CHEMBL5360558, “Molecular design, synthesis and anticancer activity of new thiopyrano[2,3-d]thiazoles based on 5-hydroxy-1,4-naphthoquinone (juglone)” (Eur J Med Chem, 2023):
Active and inactive are the calls of the source. The rule behind the calls is not given here.

Key:
HOP-92 = test: Growth inhibition against human HOP-92 cells assessed as total growth inhibitory concentration incubated for 48 hrs by sulforhodamine B spectrophotometric assay; assay type: functional
K562 [1] = test: Growth inhibition of human K562 cells incubated for 48 hrs by sulforhodamine B spectrophotometric assay; assay type: functional
UO-31 = test: Growth inhibition of human UO-31 cells incubated for 48 hrs by sulforhodamine B spectrophotometric assay; assay type: functional
OVCAR-3 = test: Growth inhibition against human OVCAR-3 cells assessed as total growth inhibitory concentration incubated for 48 hrs by sulforhodamine B spectrophotometric assay; assay type: functional
HCT-116 [2] = test: Growth inhibition of human HCT-116 cells incubated for 48 hrs by sulforhodamine B spectrophotometric assay; assay type: functional
MDA-MB-231 [3] = test: Growth inhibition against human MDA-MB-231 cells assessed as lethal concentration incubated for 48 hrs by sulforhodamine B spectrophotometric assay; assay type: functional; details: read-out: LC50 (the source's name)
Hs-578T = test: Growth inhibition of human Hs-578T cells incubated for 48 hrs by sulforhodamine B spectrophotometric assay; assay type: functional
A549 [4] = test: Growth inhibition against human A549 cells assessed as total growth inhibitory concentration incubated for 48 hrs by sulforhodamine B spectrophotometric assay; assay type: functional
HOP-62 [5] = test: Growth inhibition against human HOP-62 cells assessed as lethal concentration incubated for 48 hrs by sulforhodamine B spectrophotometric assay; assay type: functional; details: read-out: LC50 (the source's name)
K562 [6] = test: Cytotoxicity against human K562 cells assessed as cell growth inhibition incubated for 72 hrs by MTT assay; assay type: functional, cell-based; details: K562, 72 h
M14 [7] = test: Growth inhibition against human M14 cells assessed as total growth inhibitory concentration incubated for 48 hrs by sulforhodamine B spectrophotometric assay; assay type: functional
MOLT-4 = test: Growth inhibition against human MOLT-4 cells assessed as lethal concentration incubated for 48 hrs by sulforhodamine B spectrophotometric assay; assay type: functional; details: read-out: LC50 (the source's name)
NCI-H522 = test: Growth inhibition of human NCI-H522 cells incubated for 48 hrs by sulforhodamine B spectrophotometric assay; assay type: functional
OVCAR-5 [8] = test: Growth inhibition against human OVCAR-5 cells assessed as total growth inhibitory concentration incubated for 48 hrs by sulforhodamine B spectrophotometric assay; assay type: functional
KB 3-1 [9] = test: Induction of apoptosis in human KB 3-1 cells assessed as increase in BIP protein expression incubated for 24 hrs by Western blotting assay; assay type: functional, cell-based
HCT-15 [10] = test: Growth inhibition of human HCT-15 cells incubated for 48 hrs by sulforhodamine B spectrophotometric assay; assay type: functional
[11] = Acute toxicity in C57BL/6 mouse assessed as ratio of kidney weight to body weight at 20 mg/kg,ip administration and observed after 22 days (reference value: 1.39 +/- 0.09); assay type: organism-based; details: in vivo, 528 h, time 22 day
Malme-3M = test: Growth inhibition against human Malme-3M cells assessed as total growth inhibitory concentration incubated for 48 hrs by sulforhodamine B spectrophotometric assay; assay type: functional
MCF7 = test: Cytotoxicity against human MCF7 cells assessed as cell growth inhibition incubated for 72 hrs by MTT assay; assay type: functional, cell-based; details: MCF7, 72 h
[12] = Acute toxicity in C57BL/6 mouse assessed as survival rate at 20 mg/kg,ip administration observed after 22 days; assay type: organism-based; details: in vivo, time 22 day
HCT-15 [13] = test: Growth inhibition against human HCT-15 cells assessed as total growth inhibitory concentration incubated for 48 hrs by sulforhodamine B spectrophotometric assay; assay type: functional
OVCAR-8 = test: Growth inhibition against human OVCAR-8 cells assessed as total growth inhibitory concentration incubated for 48 hrs by sulforhodamine B spectrophotometric assay; assay type: functional
OVCAR-5 [14] = test: Growth inhibition against human OVCAR-5 cells assessed as lethal concentration incubated for 48 hrs by sulforhodamine B spectrophotometric assay; assay type: functional; details: read-out: LC50 (the source's name)
SR = test: Growth inhibition against human SR cells assessed as lethal concentration incubated for 48 hrs by sulforhodamine B spectrophotometric assay; assay type: functional; details: read-out: LC50 (the source's name)
MDA-MB-468 = test: Growth inhibition of human MDA-MB-468 cells incubated for 48 hrs by sulforhodamine B spectrophotometric assay; assay type: functional
SK-MEL-5 = test: Anticancer activity against human SK-MEL-5 cells assessed as cell growth at 10 uM incubated for 48 hrs by sulforhodamine B assay; assay type: functional; details: read-out: Activity
SN12C = test: Growth inhibition against human SN12C cells assessed as total growth inhibitory concentration incubated for 48 hrs by sulforhodamine B spectrophotometric assay; assay type: functional
A549 [15] = test: Growth inhibition of human A549 cells incubated for 48 hrs by sulforhodamine B spectrophotometric assay; assay type: functional
K562 [16] = test: Growth inhibition against human K562 cells assessed as total growth inhibitory concentration incubated for 48 hrs by sulforhodamine B spectrophotometric assay; assay type: functional
HT-29 = test: Growth inhibition against human HT-29 cells assessed as total growth inhibitory concentration incubated for 48 hrs by sulforhodamine B spectrophotometric assay; assay type: functional
T47D = test: Growth inhibition against human T47D cells assessed as total growth inhibitory concentration incubated for 48 hrs by sulforhodamine B spectrophotometric assay; assay type: functional
HCC 2998 = test: Growth inhibition against human HCC 2998 cells assessed as total growth inhibitory concentration incubated for 48 hrs by sulforhodamine B spectrophotometric assay; assay type: functional
IGROV-1 = test: Growth inhibition of human IGROV-1 cells incubated for 48 hrs by sulforhodamine B spectrophotometric assay; assay type: functional
LOX IMVI = test: Growth inhibition of human LOX IMVI cells incubated for 48 hrs by sulforhodamine B spectrophotometric assay; assay type: functional
CCRF-CEM = test: Induction of cell cycle arrest in human CCRF-CEM cells assessed as DNA synthesis at 4.14 uM incubated for 2.5 hrs by BrdU incorporation based flow cytometry analysis (reference value: 42.4 +/- 0.66%); assay type: functional
HOP-62 [17] = test: Growth inhibition of human HOP-62 cells incubated for 48 hrs by sulforhodamine B spectrophotometric assay; assay type: functional
HCT-116 [18] = test: Cytotoxicity against human HCT-116 cells assessed as cell growth inhibition incubated for 72 hrs by MTT assay; assay type: functional, cell-based; details: HCT-116, 72 h
MDA-MB-231 [19] = test: Growth inhibition of human MDA-MB-231 cells incubated for 48 hrs by sulforhodamine B spectrophotometric assay; assay type: functional
786-0 = test: Growth inhibition against human 786-0 cells assessed as lethal concentration incubated for 48 hrs by sulforhodamine B spectrophotometric assay; assay type: functional; details: read-out: LC50 (the source's name)
KM12 = test: Growth inhibition against human KM12 cells assessed as total growth inhibitory concentration incubated for 48 hrs by sulforhodamine B spectrophotometric assay; assay type: functional
M14 [20] = test: Anticancer activity against human M14 cells assessed as cell growth at 10 uM incubated for 48 hrs by sulforhodamine B assay; assay type: functional; details: read-out: Activity
NCI-H460 = test: Growth inhibition against human NCI-H460 cells assessed as lethal concentration incubated for 48 hrs by sulforhodamine B spectrophotometric assay; assay type: functional; details: read-out: LC50 (the source's name)
KB 3-1 [21] = test: Induction of cell morphological changes in human KB 3-1 cells at 1 uM incubated for 24 hrs by Hoechst-33342 staining based fluorescent microscopy analysis; assay type: functional
Salmon testes DNA = test: Displacement of methyl green from salmon sperm DNA assessed as DNA intercalation at 10 uM incubated for 24 hrs by fluorescence plate reader method relative to control; assay type: nucleic-acid assay; details: Salmo salar
OVCAR-5 [22] = test: Growth inhibition of human OVCAR-5 cells incubated for 48 hrs by sulforhodamine B spectrophotometric assay; assay type: functional
HCT-15 [23] = test: Growth inhibition against human HCT-15 cells assessed as lethal concentration incubated for 48 hrs by sulforhodamine B spectrophotometric assay; assay type: functional; details: read-out: LC50 (the source's name)

Compound: O=C1C2=C(C(=O)c3c(O)cccc31)C(c1ccco1)c1sc(=O)[nH]c1S2 (stereo unspecified)
- TGI (HOP-92): 8.08 µM
- GI50 (K562 [1]): 2.84 µM
- GI50 (UO-31): 2.56 µM
- TGI (OVCAR-3): 14 µM
- GI50 (HCT-116 [2]): 2.37 µM
- CC50 (MDA-MB-231 [3]): > 100 µM
- GI50 (Hs-578T): 2.2 µM
- TGI (A549 [4]): 3.63 µM
- CC50 (HOP-62 [5]): 6.86 µM
- IC50 (K562 [6]): 5.98 µM
- TGI (M14 [7]): 2.37 µM
- CC50 (MOLT-4): > 100 µM
- GI50 (NCI-H522): 2.31 µM
- TGI (OVCAR-5 [8]): 4.58 µM
- Activity (KB 3-1 [9]): Dose-Dependent Effect
- GI50 (HCT-15 [10]): 1.75 µM
- Ratio [11]: 1.28
- TGI (Malme-3M): 2 µM
- IC50 (MCF7): 3.08 µM
- survival at 528 h [12]: 100%
- TGI (HCT-15 [13]): 3.88 µM
- TGI (OVCAR-8): 8.97 µM
- CC50 (OVCAR-5 [14]): 9.85 µM
- CC50 (SR): > 100 µM
- GI50 (MDA-MB-468): 2.01 µM
- growth at 10 µM (SK-MEL-5): -93.4%
- TGI (SN12C): 3.49 µM
- GI50 (A549 [15]): 1.78 µM
- TGI (K562 [16]): > 100 µM
- TGI (HT-29): 9.25 µM
- TGI (T47D): 13 µM
- TGI (HCC 2998): 5.51 µM
- GI50 (IGROV-1): 2.51 µM
- GI50 (LOX IMVI): 2.21 µM
- Activity (CCRF-CEM): 19.29%
- GI50 (HOP-62 [17]): 2.04 µM
- IC50 (HCT-116 [18]): 0.6 µM
- GI50 (MDA-MB-231 [19]): 2.73 µM
- CC50 (786-0): 71.2 µM
- TGI (KM12): 31.3 µM
- growth at 10 µM (M14 [20]): -97.6%
- CC50 (NCI-H460): 7.84 µM
- Activity (KB 3-1 [21]): Active
- Activity (Salmon testes DNA): 44.3%
- GI50 (OVCAR-5 [22]): 2.13 µM
- CC50 (HCT-15 [23]): 8.59 µM
